The record followed here is ChEMBL document CHEMBL5370542, “Current advances of small molecule E3 ligands for proteolysis-targeting chimeras design” (Eur J Med Chem, 2023).

Some results are limits rather than exact numbers.

Assay [1] concerns the target T1, von Hippel-Lindau disease tumor suppressor/GTPase KRas (Homo sapiens, UniProt P01116+P40337, G12C). The experiment in a line: PROTAC activity at VHL/KRAS G12C mutant in human SW1573 cells assessed as induction of KRAS G12C degradation by Immunoblot analysis. In kind it is cell-based. (A western blot detects proteins with antibodies after separation by electrophoresis.)

For assay [2], the target named is T1, von Hippel-Lindau disease tumor suppressor/GTPase KRas. The experiment in a line: PROTAC activity at VHL/KRAS G12C mutant in human NCI-H23 cells assessed as induction of KRAS G12C degradation by Immunoblot analysis. Format: cell-based.
The target is the same in assay [3]. Kind of assay: PROTAC activity at VHL/KRAS G12C mutant in human NCI-H358 cells assessed as induction of KRAS G12C degradation by Immunoblot analysis. In kind it is cell-based.
Assay [4] shares this target. Kind of assay: PROTAC activity at VHL/KRAS G12C mutant in human NCI- H2030 cells assessed as induction of KRAS G12C degradation by Immunoblot analysis. In kind it is cell-based.
The target is the same in assay [5]. Kind of assay: PROTAC activity at VHL/KRAS G12C mutant in human MIA PaCa-2 cells assessed as induction of KRAS G12C degradation by Immunoblot analysis. In kind it is cell-based.
Assay [6] has as its target Bromodomain-containing protein 4 (Homo sapiens, UniProt O60885). The experiment in a line: Induction of HiBit-tagged BRD4 degradation in human A549 cells incubated for 4 to 24 hrs by luminescence based Nano-Glo assay. In kind it is cell-based. On the technique in general: The HiBiT peptide binds its large partner to form an active luciferase.
Assay [7] has as its target von Hippel-Lindau disease tumor suppressor (Homo sapiens, UniProt P40337). Kind of assay: Binding affinity to VHL (unknown origin) assessed as inhibition constant.
Assay [8] addresses Protein cereblon/Mitogen-activated protein kinase 13 (Homo sapiens) (UniProt O15264+Q96SW2). The experiment in a line: PROTAC activity at CRBN/N-terminal His-tagged human p38delta expressed in Escherichia coli BL21-CodonPlus (DE3)-RIPL cells assessed as maximal degradation degradation relative to control.
Assay [9] deals with von Hippel-Lindau disease tumor suppressor/Mitogen-activated protein kinase 14 (Homo sapiens) (UniProt Q16539+P40337). Kind of assay: PROTAC activity at VHL/N-terminal His-tagged human p38alpha expressed in Escherichia coli BL21-CodonPlus (DE3)-RIPL cells assessed as maximal degradation relative to control.
A further assay has as its system MV4-11. Kind of assay: Antiproliferative activity against human MV4-11 cells assessed as inhibition of cell growth incubated for 3 days by CellTiter-Glo assay. Format: functional, cell-based. Particulars: MV4-11, 72 h.

T1 sequence (P01116 whole entry G12C, stated change not applied): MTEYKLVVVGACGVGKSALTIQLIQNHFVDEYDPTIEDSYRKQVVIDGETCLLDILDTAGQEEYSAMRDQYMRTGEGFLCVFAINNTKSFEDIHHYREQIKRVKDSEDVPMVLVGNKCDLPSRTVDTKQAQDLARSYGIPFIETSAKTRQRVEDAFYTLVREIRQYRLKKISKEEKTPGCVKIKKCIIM
T1 sequence (P40337 whole entry, stated change not applied): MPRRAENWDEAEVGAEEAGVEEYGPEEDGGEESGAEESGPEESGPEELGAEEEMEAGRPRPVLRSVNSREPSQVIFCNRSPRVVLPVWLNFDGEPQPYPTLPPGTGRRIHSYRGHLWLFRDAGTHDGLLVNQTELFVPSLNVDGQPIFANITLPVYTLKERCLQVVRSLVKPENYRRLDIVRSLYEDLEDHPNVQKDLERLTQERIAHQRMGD
Chain of von Hippel-Lindau disease tumor suppressor (P40337 whole entry): as the sequence (P40337 whole entry, stated change not applied) above
Chain of von Hippel-Lindau disease tumor suppressor/Mitogen-activated protein kinase 14 (Homo sapiens) (P40337 whole entry partner): as the sequence (P40337 whole entry, stated change not applied) above
Chain of von Hippel-Lindau disease tumor suppressor/Mitogen-activated protein kinase 14 (Homo sapiens) (Q16539 2-360 limits assumed): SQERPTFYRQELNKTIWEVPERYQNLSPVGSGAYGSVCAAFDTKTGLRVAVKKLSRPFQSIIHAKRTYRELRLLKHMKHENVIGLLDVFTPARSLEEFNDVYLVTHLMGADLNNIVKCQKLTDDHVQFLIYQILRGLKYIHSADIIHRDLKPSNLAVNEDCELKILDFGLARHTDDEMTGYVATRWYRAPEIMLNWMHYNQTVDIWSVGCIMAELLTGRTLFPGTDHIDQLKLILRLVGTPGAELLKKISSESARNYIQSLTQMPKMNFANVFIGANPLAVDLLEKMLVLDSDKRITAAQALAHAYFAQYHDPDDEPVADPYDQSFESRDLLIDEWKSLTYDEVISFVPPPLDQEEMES
Chain of Protein cereblon/Mitogen-activated protein kinase 13 (Homo sapiens) (O15264 whole entry, looked up): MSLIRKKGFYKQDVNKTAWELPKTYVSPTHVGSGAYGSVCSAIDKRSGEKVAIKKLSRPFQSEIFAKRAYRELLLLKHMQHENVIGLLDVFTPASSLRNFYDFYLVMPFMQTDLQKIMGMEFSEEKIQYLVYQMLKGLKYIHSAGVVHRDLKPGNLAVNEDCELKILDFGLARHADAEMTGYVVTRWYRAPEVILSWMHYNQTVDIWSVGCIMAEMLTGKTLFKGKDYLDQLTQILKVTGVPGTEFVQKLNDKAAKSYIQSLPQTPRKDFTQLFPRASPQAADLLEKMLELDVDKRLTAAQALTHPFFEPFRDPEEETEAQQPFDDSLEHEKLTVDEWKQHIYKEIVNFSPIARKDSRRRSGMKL
Chain of Protein cereblon/Mitogen-activated protein kinase 13 (Homo sapiens) (Q96SW2 whole entry, looked up): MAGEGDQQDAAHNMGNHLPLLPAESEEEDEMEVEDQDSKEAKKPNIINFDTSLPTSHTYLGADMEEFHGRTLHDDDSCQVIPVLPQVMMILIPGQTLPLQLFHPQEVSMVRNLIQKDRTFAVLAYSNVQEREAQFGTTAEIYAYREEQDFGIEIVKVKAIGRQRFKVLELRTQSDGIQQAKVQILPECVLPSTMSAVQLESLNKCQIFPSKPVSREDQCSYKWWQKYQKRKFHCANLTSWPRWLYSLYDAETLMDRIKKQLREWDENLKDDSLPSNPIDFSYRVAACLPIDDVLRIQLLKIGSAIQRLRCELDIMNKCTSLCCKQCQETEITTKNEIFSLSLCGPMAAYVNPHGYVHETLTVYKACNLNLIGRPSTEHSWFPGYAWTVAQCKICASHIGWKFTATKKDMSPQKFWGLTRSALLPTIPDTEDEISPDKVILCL

In general, EC50 refers to the concentration giving half of the maximal effect. Regarding `C=C(F)C(=O)N1CCN(c2nc(OC[C@@H]3CCCN3CCCOCCC(=O)N[C@H](C(=O)N3C[C@H](O)C[C@H]3C(=O)NCc3ccc(-c4scnc4C)cc3)C(C)(C)C)nc3c2CCN(c2cccc4cccc(Cl)c24)C3)C[C@@H]1CC#N`, the EC50 in assay [1], in assay [2], in assay [3], in assay [4] and in [5] was 0.25 µM each time.
For the compound `Cc1cc([C@@H](C(=O)N2C[C@@H](O)C[C@@H]2C(=O)N[C@H](C)c2ccc(-c3scnc3C#CCOCCOCCOCCNC(=O)C[C@@H]3N=C(c4ccc(Cl)cc4)c4c(sc(C)c4C)-n4c(C)nnc43)cc2)C(C)C)on1`, the EC50 in assay [6] is < 0.05 µM.
What is called Ki is a measure of affinity in units of concentration, obtained from inhibition or displacement. With `Cc1ncsc1-c1ccc(CNC(=O)[C@@H]2C[C@@H](O)CN2C(=O)c2cccc(N)c2C)cc1`, the inhibition constant Ki in assay [7] turned out to be 0.67 µM.
Usually Emax stands for the size of the effect at its maximum, as opposed to the concentration needed. Turning to `COc1cc2c(Oc3ccc(NC(=O)C4(C(=O)Nc5ccc(F)cc5)CC4)cc3F)ccnc2cc1OCCCN1CCOCC1`, the Emax in assay [8] and in [9] was 91% each time.
Usually IC50 stands for the concentration at which inhibition is half-maximal. On to `Cc1sc2c(c1C)C(c1ccc(Cl)cc1)=N[C@@H](CC(=O)NCCCCNC(=O)COc1cccc3c1C(=O)N(C1CCC(=O)NC1=O)C3=O)c1nnc(C)n1-2` (stereo not given in full), for which, in the assay on MV4-11, the IC50 came to 0.0061 µM.
